System: U87 MG/PER2-dLuc cells
Assay: cellular circadian rhythm assay with neurotoxicants in the presence of antioxidants
Type: cell-based, human
Experimental: Briefly, cultured U87 MG/PER2 -dLuc cells were seeded in 35-mm dishes at 3 × 10^5 cells/dish and incubated until 70–80% confluency was reached. The cells were FBS-starved for three days at 70% confluency and then synchronized with 50% horse serum (16050122; Gibco) (Balsalobre et al. [1998]). After decanting and washing, recording medium (EMEM with 20% of growing medium containing 5% FBS, 6.5 mM sodium bicarbonate, 10 mM HEPES buffer [pH 7.2], 0.1 mM luciferin [E1602; Promega], and 50 U/mL penicillin and 50 µg/mL streptomycin) was added. Subsequently, the cells were treated with each compound. The 35-mm dishes were sealed with a sterile glass cover slide using silicon grease and subjected to continuous monitoring with a LumiCycle 32™ (Actimetrics) for 5 days. The analytical method was optimized according to the instruction manual of the LumiCycle Analysis Software (Actimetrics). Using this software, data were detrended (running average), and best fits to a sine wave were estimated using the Levenberg–Marquardt algorithm for period, phase, amplitude, and damping rate measurements, as previously reported (Chen et al. [2012]; Fang et al. [2015], [2017]).
The cellular circadian rhythm was recorded as described above.

CC(=O)N[C@@H](CS)C(=O)O [NAC, N-acetyl-L-cysteine]
restoration of circadian rhythm disrupted by CPF (1.5 µM CPF, 20 µM NAC, 12.5 µM (or 25 µM) MSC): restored the circadian rhythm | effect on circadian rhythm disrupted by MHg (2.0 µM MHg, co-treatment with NAC and MSC): reduced the first high-altitude peak | restoration of cellular rhythm disrupted by DDT (10 µM DDT, co-treatment with NAC (10 or 20 µM) or MSC (12.5 or 25 µM)): restored the cellular rhythm | restoration of MPP + -disrupted rhythmicity (MPP + at LOAEL, restored rhythm not similar to that of control cells): restore the cellular circadian rhythm to a certain extent

Source: article PMC10965668, “Combined use of multiparametric high-content-screening and in vitro circadian reporter assays in neurotoxicity evaluation” (Archives of Toxicology, 2024)
